Measured values reported in patent US20240408119A1, “DELIVERY OF THERAPEUTIC ALKALOID COMPOUNDS” (priority 2022, published 2024).
Where two headings read alike, the source gives them in different places. Marks after values point to notes of the source that are not given here.

Legend:
in vivo = format: in vivo, mouse; details: for half-life / C0 / clearance / Vd: iv, 2 mg/kg; for C0: back extrapolated; for Vd: read-out: Vss
Method: Total fifteen male mice were used in this study with n=3 mice/time point with sparse sampling study design. Animals were administered through intravenous route with solution formulation of 321 at 2 mg/kg dose.
The extraction procedure for plasma/brain samples and the spiked plasma/brain calibration standards were identical (PMSF Stabilized Plasma and Brain used for Preparation of calibration standards): A 20 μL of study sample plasma/brain or spiked plasma/brain calibration standard was added to individual pre-labeled micro-centrifuge tubes followed by 200 μL of internal standard prepared in acetonitrile (Rosuvastatin, 50 ng/mL) was added except for blank, where 200 μL of acetonitrile was added. Samples were vortexed for 5 minutes. Samples were centrifuged for 10 minutes at a speed of 4000 rpm at 4° C. Following centrifugation, 200 μL of clear supernatant was transferred in 96 well plates and analyzed using LC-MS/MS.
Brain samples were diluted (1-part of tissue: 2-part of buffer) and homogenized. The homogenate was submitted for bioanalysis and the concentrations (ng/mL) received were corrected with dilution factor (3×) and the final reported concentrations were represented in ng/g.
The plasma and brain concentration-time data of 321 and 001 were used for the pharmacokinetic analysis.
LLOQ: 321: 1.02 ng/mL for plasma and brain 001: 1.01 ng/mL for plasma and brain

[1] = Plasma Stability Assay (Example A3), human plasma; format: in vitro ADME; details: 10 μM, 37° C.; for Human Plasma Metabolite (%): metabolite (mesembrine, 001) accumulated; for Human Plasma Prodrug (%): prodrug remaining
Text: (§1) The data is represented in the table below.

[2] = format: in vitro ADME, mouse; details: 5 μM, 37° C.; for Mouse Plasma Metabolite (%): metabolite (mesembrine) accumulated; for Mouse Plasma Prodrug (%): prodrug remaining
Method: (§2) Each test was carried out in duplicate for each time point; 0 min, 15 min, 30 min, 60 min, 120, 240 min. […]

[3] = Metabolic Stability in Human Hepatocytes; format: in vitro ADME; details: cryopreserved human hepatocytes, 37° C.
Method: A 2.5 uL aliquot of 100 μM test compound was incubated with 247.5 uL of cryopreserved hepatocytes suspended in serum-free incubation medium at 5×10^5 viable cells/mL. The mixture was incubated at 37° C. and shaken at 500 rpm for the designated time points (0.5, 15, 30, 60, 90, or 120 min). At each time point, 25 μL aliquot of incubation mixture was transferred to 125 μL of cold acetonitrile containing internal standard, followed by centrifugation for 30 min at 3,220 g. 100 μL of supernatant was mixed with 100 μL of distilled water for analysis by LC-MS/MS. Peak areas were determined from extracted ion chromatograms and in vitro half-life (t1/2) was determined from the concentration vs time regression slope, in vitro t1/2=0.693/k. Conversion of the in vitro t1/2 (in min) into the in vitro intrinsic clearance (in vitro CLint, in μL/min/10^6 cells) is done using: in vitro CLint=kV/N.

[4] = Plasma Stability Assay (Example A3), rat plasma; format: in vitro ADME; details: 10 μM, 37° C.; for Rat Plasma Metabolite (%): metabolite (mesembrine, 001) accumulated; for Rat Plasma Prodrug (%): prodrug remaining
Text: as §1

[5] = format: in vitro ADME, human; details: 5 μM, 37° C.; for Human Plasma Metabolite (%): metabolite (mesembrine) accumulated; for Human Plasma Prodrug (%): prodrug remaining
Method: as §2

[6] = 321 after 321 IV 2 mg/kg, 0.08 h
[7] = 321 after 321 IV 2 mg/kg, 0.25 h
[8] = 321 after 321 IV 2 mg/kg, 0.5 h
[9] = male, C57BL/6, mouse, in vivo, 321 in brain after 321 IV 2 mg/kg
[10] = male, C57BL/6, mouse, in vivo, 321 in plasma after 321 IV 2 mg/kg

In the case of `COc1ccc([C@@]23CCC(OP(=O)(OC(C)C)OC(C)C)=C[C@@H]2N(C)CC3)cc1OC` [Compound 321, [(3aS,7aS)-3a-(3,4-dimethoxyphenyl)-1-methyl-3,4,5,7a-tetrahydro-2H-indol-6-yl]diisopropyl phosphate], the “brain concentrations quantifiable up to” value (in vivo; 321 after 321 IV 2 mg/kg) is reported as ≤ 0.5 h, the “plasma concentrations quantifiable up to” value (in vivo; 321 after 321 IV 2 mg/kg) is reported as “up to 2 h” and the “Brain concentrations (mean)” value (in vivo; [6]) is reported as 99.58 ng/g. The “Plasma concentrations (mean)” value (in vivo; [6]) was 304.66 ng/mL, the “Brain concentrations (mean)” value (in vivo; [7]) was 37.11 ng/g and the “Plasma concentrations (mean)” value (in vivo; [7]) was 104.69 ng/mL. For the same compound, the “Brain concentrations (mean)” value (in vivo; [8]) was 7.89 ng/g, the “Plasma concentrations (mean)” value (in vivo; [8]) was 26.16 ng/mL and the “Plasma concentrations (mean)” value (in vivo; 321 after 321 IV 2 mg/kg, 1 h) was 8.57 ng/mL. For the same compound, the “Plasma concentrations (mean)” value (in vivo; 321 after 321 IV 2 mg/kg, 2 h, average of two values) was 1.38^d ng/mL, the AUClast (in vivo; 321 in brain after 321 IV 2 mg/kg) was 27.57 ng·h/g and the half-life (in vivo; [9]) was 6.6 min. The C0 (in vivo; [9]) was 158 ng/mL, the clearance (in vivo; male, C57BL/6, mouse, in vivo, 321 in brain after 321 IV 2 mg/kg, flagged NR (not reportable, very high vs liver blood flow)) was 1150 mL/min/kg and the Vd (in vivo; [9]) was 10.3 L/kg. For the same compound, the clearance (in vivo; [10]) was 341 mL/min/kg, the half-life (in vivo; [10]) was 21.6 min and the C0 (in vivo; [10]) was 504 ng/mL. It also gave a Vd (in vivo; [10]) of 4.8 L/kg, a Kp (in vivo; male, C57BL/6, mouse, in vivo, 321 after 321 IV 2 mg/kg, read-out: Brain-Kp) of 0.28 and an AUC(0-t) (in vivo; [10]) of 97.1 ng·h/mL. For the same compound, the “Human Plasma Metabolite (%)” value ([1]; 0 min) was 0.40%, the “Human Plasma Metabolite (%)” value ([1]; 10 min) was 0.50% and the “Human Plasma Metabolite (%)” value ([1]; 30 min) was 0.57%. For the same compound, the “Human Plasma Metabolite (%)” value ([1]; 60 min) was 0.65%, the “Human Plasma Metabolite (%)” value ([1]; 120 min) was 0.82% and the “Human Plasma Metabolite (%)” value ([1]; 240 min) was 0.96%. For the same compound, the “Human Plasma Prodrug (%)” value ([1]; 0 min) was 100.0%, the “Human Plasma Prodrug (%)” value ([1]; 10 min) was >99% and the “Human Plasma Prodrug (%)” value ([1]; 30 min) was >99%. The “Human Plasma Prodrug (%)” value ([1]; 60 min) was 98.1%, the “Human Plasma Prodrug (%)” value ([1]; 120 min) was 94.5% and the “Human Plasma Prodrug (%)” value ([1]; 240 min) was 96.3%. The “Mouse Plasma Metabolite (%)” value ([2]; 0 min) was 11.9%, the “Mouse Plasma Metabolite (%)” value ([2]; 15 min) was 28.4% and the “Mouse Plasma Metabolite (%)” value ([2]; 30 min) was 38.3%. For the same compound, the “Mouse Plasma Metabolite (%)” value ([2]; 60 min) was 51.1%, the “Mouse Plasma Metabolite (%)” value ([2]; 120 min) was 53.7% and the “Mouse Plasma Metabolite (%)” value ([2]; 240 min) was 55.2%. For the same compound, the “Mouse Plasma Prodrug (%)” value ([2]; 0 min) was 100%, the “Mouse Plasma Prodrug (%)” value ([2]; 15 min) was 77.3% and the “Mouse Plasma Prodrug (%)” value ([2]; 30 min) was 74.5%. For the same compound, the “Mouse Plasma Prodrug (%)” value ([2]; 60 min) was 58.4%, the “Mouse Plasma Prodrug (%)” value ([2]; 120 min) was 43.1% and the “Mouse Plasma Prodrug (%)” value ([2]; 240 min) was 31.7%. For the same compound, the half-life at 1 μM [3] was 23 min, the hepatocyte CLint at 1 μM [3] was 59.4 µL/min/1e6 cells and the “Rat Plasma Metabolite (%)” value ([4]; 0 min) was 23.9%. For the same compound, the “Rat Plasma Metabolite (%)” value ([4]; 10 min) was 53.7%, the “Rat Plasma Metabolite (%)” value ([4]; 30 min) was 56.0% and the “Rat Plasma Metabolite (%)” value ([4]; 60 min) was 59.1%. The “Rat Plasma Metabolite (%)” value ([4]; 120 min) was 59.3%, the “Rat Plasma Metabolite (%)” value ([4]; 240 min) was 56.7% and the “Rat Plasma Prodrug (%)” value ([4]; 0 min) was 100.0%. The “Rat Plasma Prodrug (%)” value ([4]; 10 min) was 74.0%, the “Rat Plasma Prodrug (%)” value ([4]; 30 min) was 69.8% and the “Rat Plasma Prodrug (%)” value ([4]; 60 min) was 69.2%. For the same compound, the “Rat Plasma Prodrug (%)” value ([4]; 120 min) was 68.4%, the “Rat Plasma Prodrug (%)” value ([4]; 240 min) was 65.7% and the “Human Plasma Metabolite (%)” value ([5]; 0 min) was 0.08%. The “Human Plasma Metabolite (%)” value ([5]; 15 min) was 0.29%, the “Human Plasma Metabolite (%)” value ([5]; 30 min) was 0.40% and the “Human Plasma Metabolite (%)” value ([5]; 60 min) was 0.49%. For the same compound, the “Human Plasma Metabolite (%)” value ([5]; 120 min) was 0.67%, the “Human Plasma Metabolite (%)” value ([5]; 240 min) was 0.61% and the “Human Plasma Prodrug (%)” value ([5]; 0 min) was 100%. For the same compound, the “Human Plasma Prodrug (%)” value ([5]; 15 min) was >99%, the “Human Plasma Prodrug (%)” value ([5]; 30 min) was >99% and the “Human Plasma Prodrug (%)” value ([5]; 60 min) was >99%. The “Human Plasma Prodrug (%)” value ([5]; 120 min) was >99% and the “Human Plasma Prodrug (%)” value ([5]; 240 min) was 78.2%.
